Results on one molecule are retold here after ChEMBL document CHEMBL4680122, “Design, synthesis and biological evaluation of new Axl kinase inhibitors containing 1,3,4-oxadiazole acetamide moiety as novel linker” (Eur J Med Chem, 2020).

As usually defined, the IC50 is the midpoint of a concentration-inhibition curve. The term inhibition denotes the percentage by which the read-out fell short of the control.

Experiment [1] deals with A549. The experiment in a line: cells. The note with it: Homo sapiens, A549, 72 h.
Description: Antiproliferative activity against human A549 cells measured after 72 hrs by MTT assay
In experiment [2] the target is Macrophage-stimulating protein receptor (Homo sapiens) (UniProt Q04912). The experiment in a line: Inhibition of Ron (unknown origin) at 200 nM relative to control.
For the next experiment, the system named is MDA-MB-231. The experiment in a line: Antiproliferative activity against human MDA-MB-231 cells measured after 72 hrs by MTT assay. Type of experiment: functional, cell-based.
Experiment [3] deals with MCF7. The experiment in a line: Antiproliferative activity against human MCF7 cells measured after 72 hrs by MTT assay. The class given is functional, cell-based. Conditions: MCF7, 72 h. In general terms: Formazan colour is commonly taken as a measure of viable cells.
The next experiment deals with PC-3. The experiment in a line: Potency index, ratio of foretinib IC50 to test compound IC50 for antiproliferative activity against human PC-3 cells. Type of experiment: functional.
For experiment [4], the target named is Platelet-derived growth factor receptor beta (Homo sapiens, UniProt P09619). The experiment in a line: Inhibition of human His-tagged PDGFRB cytoplasmic domain expressed in baculovirus expression system using peptide substrate measured after 1 hr by mobility shift assay.
Experiment [5] addresses Hepatocyte growth factor receptor (Homo sapiens, UniProt P08581). The experiment in a line: Inhibition of human N-terminal GST-fused c-MET cytoplasmic domain (956 to 1390 residues) expressed in baculovirus expression system using Srctide as substrate measured after 1 hr by mobility shift assay.
Experiment [6] has as its target T1, Tyrosine-protein kinase receptor TYRO3 (Homo sapiens, UniProt Q06418).
T1 sequence (Q06418 whole entry): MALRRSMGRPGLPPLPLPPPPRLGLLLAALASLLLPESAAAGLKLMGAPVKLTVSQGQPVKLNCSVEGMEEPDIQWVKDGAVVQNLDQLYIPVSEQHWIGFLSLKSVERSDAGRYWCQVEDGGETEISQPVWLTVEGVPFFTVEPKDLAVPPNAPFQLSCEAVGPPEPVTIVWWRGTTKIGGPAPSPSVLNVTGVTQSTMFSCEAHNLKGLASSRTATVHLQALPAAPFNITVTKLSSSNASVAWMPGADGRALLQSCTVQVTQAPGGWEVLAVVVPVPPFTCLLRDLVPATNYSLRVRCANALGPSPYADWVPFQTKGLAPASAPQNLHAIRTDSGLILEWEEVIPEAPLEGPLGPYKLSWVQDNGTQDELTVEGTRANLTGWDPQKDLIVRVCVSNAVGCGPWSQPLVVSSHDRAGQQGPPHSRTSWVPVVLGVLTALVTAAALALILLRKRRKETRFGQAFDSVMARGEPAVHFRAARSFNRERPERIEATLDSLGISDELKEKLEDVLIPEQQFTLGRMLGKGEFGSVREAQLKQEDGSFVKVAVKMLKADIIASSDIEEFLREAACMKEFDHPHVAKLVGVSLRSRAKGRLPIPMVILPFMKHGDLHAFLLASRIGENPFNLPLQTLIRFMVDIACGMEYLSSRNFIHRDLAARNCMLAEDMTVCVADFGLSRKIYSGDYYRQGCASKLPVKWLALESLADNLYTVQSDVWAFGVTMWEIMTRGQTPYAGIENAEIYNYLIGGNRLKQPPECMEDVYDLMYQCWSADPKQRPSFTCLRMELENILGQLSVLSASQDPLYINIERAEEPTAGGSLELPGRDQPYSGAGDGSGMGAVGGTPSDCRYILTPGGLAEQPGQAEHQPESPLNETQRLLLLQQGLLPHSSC
The experiment in a line: Inhibition of Tyro3 (unknown origin).

A further experiment deals with HT-29. The experiment in a line: Antiproliferative activity against human HT-29 cells measured after 72 hrs by MTT assay. The note with it: HT-29, 72 h.
In another experiment the test system is H1975/Gefitinib. The experiment in a line: cells. Conditions: Homo sapiens, 72 h.
Experiment [7] addresses Vascular endothelial growth factor receptor 3 (Homo sapiens) (UniProt P35916). The experiment in a line: Inhibition of Flt4 (unknown origin) at 200 nM relative to control.
For experiment [8], the target named is Aurora kinase B (Homo sapiens) (UniProt Q96GD4). The experiment in a line: Inhibition of Aurora-B (unknown origin) at 200 nM relative to control.
In experiment [9] the target is Vascular endothelial growth factor receptor 2 (Homo sapiens, UniProt P35968). The experiment in a line: Inhibition of human N-terminal GST-fused KDR cytoplasmic domain (790 to 1356 residues) expressed in baculovirus expression system using CSKtide as substrate measured after 1 hr by mobility shift assay.
Experiment [10] has as its system MCF7. The experiment in a line: Potency index, ratio of foretinib IC50 to test compound IC50 for antiproliferative activity against human MCF7 cells. The class given is functional.
In experiment [11] the target is Tyrosine-protein kinase receptor UFO (Homo sapiens) (UniProt P30530). The note with it: dose 100.0 nM, time 1.0 hrs.
The target in experiment [12] is Mast/stem cell growth factor receptor Kit (Homo sapiens, UniProt P10721). The experiment in a line: Inhibition of human N-terminal GST-tagged c-Kit cytoplasmic domain (544 to end residues) expressed in baculovirus infected Sf21 insect cells using peptide substrate measured after 1 hr by mobility shift assay.
Experiment [13] deals with T2, Tyrosine-protein kinase receptor UFO (Homo sapiens, UniProt P30530).
T2 sequence (P30530 whole entry): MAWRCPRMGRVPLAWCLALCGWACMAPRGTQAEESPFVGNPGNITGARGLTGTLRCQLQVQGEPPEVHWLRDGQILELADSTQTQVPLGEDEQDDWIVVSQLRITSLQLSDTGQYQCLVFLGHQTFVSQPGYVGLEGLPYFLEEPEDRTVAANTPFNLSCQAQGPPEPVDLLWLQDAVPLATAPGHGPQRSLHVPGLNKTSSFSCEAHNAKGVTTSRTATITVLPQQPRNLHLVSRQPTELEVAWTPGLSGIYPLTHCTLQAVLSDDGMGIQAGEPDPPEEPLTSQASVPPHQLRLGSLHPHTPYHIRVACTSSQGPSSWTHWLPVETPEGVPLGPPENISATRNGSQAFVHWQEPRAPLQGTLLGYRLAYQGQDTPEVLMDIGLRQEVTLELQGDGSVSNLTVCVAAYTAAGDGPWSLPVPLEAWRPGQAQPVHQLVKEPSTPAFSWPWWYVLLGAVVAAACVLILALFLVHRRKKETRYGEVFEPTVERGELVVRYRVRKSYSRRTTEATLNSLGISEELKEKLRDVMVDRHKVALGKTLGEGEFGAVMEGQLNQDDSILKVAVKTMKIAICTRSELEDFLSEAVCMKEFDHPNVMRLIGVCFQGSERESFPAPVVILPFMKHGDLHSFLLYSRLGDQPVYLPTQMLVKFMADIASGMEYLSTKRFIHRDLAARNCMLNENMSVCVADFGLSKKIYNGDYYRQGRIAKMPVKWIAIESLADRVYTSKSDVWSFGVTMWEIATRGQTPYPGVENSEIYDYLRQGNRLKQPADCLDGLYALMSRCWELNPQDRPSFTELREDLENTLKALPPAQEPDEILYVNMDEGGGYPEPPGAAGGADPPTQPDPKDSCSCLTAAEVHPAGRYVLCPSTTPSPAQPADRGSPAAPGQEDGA
The experiment in a line: Inhibition of human N-terminal GST-fused Axl cytoplasmic domain (464 to 885 residues) expressed in baculovirus expression system using CSKtide as substrate measured after 1 hr by mobility shift assay.

Experiment [14] relates to A549. The experiment in a line: Potency index, ratio of foretinib IC50 to test compound IC50 for antiproliferative activity against human A549 cells. The class given is functional.

Active and inactive are the calls of the source. The calls are words filed in the database; no cut-off is given here. Where only a bound is given, the exact number is not on record here.

Sequence of Vascular endothelial growth factor receptor 2 (P35968 whole entry, the tested form may be a part): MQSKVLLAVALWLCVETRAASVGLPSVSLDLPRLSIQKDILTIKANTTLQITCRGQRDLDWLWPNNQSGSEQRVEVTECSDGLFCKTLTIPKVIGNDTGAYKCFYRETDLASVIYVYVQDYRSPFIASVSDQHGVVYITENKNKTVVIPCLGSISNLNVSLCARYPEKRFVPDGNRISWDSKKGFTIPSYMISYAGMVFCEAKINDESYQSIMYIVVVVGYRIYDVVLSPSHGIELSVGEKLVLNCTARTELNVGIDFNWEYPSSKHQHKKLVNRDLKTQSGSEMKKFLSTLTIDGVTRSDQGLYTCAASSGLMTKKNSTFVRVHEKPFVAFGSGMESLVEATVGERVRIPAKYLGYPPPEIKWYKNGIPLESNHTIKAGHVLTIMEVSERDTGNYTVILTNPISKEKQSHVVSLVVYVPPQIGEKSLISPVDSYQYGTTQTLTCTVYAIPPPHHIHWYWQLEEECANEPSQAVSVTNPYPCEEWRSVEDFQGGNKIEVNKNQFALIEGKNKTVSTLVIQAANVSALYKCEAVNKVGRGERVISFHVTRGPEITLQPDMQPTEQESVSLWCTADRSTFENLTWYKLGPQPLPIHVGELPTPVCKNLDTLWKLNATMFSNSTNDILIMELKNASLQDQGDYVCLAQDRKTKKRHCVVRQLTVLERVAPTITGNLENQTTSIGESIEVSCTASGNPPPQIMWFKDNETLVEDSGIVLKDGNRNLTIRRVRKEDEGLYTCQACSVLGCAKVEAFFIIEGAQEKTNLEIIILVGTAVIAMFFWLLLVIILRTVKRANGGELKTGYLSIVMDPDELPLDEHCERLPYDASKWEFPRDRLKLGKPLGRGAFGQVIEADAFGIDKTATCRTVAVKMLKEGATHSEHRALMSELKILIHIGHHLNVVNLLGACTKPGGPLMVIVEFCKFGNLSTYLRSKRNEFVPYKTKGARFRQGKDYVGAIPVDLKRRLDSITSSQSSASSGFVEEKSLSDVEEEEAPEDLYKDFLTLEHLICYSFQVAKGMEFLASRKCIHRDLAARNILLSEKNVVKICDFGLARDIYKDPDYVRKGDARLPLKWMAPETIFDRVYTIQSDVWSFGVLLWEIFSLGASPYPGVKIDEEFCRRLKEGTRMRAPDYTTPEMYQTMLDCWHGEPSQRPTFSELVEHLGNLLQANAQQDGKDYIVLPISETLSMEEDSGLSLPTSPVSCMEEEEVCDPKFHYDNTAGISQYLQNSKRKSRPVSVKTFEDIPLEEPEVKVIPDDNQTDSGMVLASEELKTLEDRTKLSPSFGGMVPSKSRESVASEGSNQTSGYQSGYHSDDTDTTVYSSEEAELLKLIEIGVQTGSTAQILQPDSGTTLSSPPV
Sequence of Platelet-derived growth factor receptor beta (P09619 whole entry, the tested form may be a part): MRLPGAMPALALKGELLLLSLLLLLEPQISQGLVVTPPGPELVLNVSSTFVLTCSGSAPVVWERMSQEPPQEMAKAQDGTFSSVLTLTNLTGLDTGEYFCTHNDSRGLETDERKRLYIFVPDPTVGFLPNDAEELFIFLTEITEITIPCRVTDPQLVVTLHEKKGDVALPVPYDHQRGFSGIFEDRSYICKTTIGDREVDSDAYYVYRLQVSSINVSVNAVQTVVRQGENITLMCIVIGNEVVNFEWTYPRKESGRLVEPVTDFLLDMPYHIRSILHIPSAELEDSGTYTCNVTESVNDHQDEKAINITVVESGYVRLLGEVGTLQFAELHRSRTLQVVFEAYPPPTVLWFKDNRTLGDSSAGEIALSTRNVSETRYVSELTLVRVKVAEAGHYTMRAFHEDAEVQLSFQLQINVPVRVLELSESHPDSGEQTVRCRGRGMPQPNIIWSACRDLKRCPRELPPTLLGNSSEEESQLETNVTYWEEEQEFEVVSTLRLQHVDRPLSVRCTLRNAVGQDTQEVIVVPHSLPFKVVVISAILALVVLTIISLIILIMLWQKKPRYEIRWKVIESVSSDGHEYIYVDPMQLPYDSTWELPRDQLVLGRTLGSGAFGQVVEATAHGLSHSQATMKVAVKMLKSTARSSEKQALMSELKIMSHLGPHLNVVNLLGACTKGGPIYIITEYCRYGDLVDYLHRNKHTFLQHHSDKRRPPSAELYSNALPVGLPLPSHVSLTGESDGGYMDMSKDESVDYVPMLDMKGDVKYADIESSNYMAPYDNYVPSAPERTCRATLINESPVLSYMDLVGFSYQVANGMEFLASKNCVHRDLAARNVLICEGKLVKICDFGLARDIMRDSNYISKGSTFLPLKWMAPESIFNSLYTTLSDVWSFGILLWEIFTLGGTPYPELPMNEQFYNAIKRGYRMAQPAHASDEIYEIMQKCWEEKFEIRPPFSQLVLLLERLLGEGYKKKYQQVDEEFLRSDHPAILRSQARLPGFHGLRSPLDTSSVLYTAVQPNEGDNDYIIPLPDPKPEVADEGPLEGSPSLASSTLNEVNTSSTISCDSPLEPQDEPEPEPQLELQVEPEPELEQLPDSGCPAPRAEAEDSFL
Sequence of Aurora kinase B (Homo sapiens) (Q96GD4 whole entry, the tested form may be a part): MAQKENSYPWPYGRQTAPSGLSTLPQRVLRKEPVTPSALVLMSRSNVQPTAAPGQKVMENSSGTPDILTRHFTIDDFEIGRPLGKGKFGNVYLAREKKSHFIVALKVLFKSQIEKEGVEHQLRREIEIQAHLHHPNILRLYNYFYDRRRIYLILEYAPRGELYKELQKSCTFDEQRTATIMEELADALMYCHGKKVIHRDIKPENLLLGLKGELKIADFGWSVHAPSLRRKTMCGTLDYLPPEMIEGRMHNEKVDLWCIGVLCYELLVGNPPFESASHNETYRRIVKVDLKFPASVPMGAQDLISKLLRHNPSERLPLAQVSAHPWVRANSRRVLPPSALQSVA
Sequence of Macrophage-stimulating protein receptor (Homo sapiens) (Q04912 25-304 limits assumed): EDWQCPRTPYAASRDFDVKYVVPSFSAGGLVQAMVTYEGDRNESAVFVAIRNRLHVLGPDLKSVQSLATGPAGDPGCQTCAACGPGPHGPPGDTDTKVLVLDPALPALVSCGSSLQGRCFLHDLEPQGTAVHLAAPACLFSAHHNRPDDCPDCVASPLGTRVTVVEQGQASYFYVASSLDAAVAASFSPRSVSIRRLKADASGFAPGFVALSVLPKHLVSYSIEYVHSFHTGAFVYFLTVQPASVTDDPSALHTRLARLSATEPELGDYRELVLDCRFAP
Sequence of Macrophage-stimulating protein receptor (Homo sapiens) (Q04912 310-1400 limits assumed): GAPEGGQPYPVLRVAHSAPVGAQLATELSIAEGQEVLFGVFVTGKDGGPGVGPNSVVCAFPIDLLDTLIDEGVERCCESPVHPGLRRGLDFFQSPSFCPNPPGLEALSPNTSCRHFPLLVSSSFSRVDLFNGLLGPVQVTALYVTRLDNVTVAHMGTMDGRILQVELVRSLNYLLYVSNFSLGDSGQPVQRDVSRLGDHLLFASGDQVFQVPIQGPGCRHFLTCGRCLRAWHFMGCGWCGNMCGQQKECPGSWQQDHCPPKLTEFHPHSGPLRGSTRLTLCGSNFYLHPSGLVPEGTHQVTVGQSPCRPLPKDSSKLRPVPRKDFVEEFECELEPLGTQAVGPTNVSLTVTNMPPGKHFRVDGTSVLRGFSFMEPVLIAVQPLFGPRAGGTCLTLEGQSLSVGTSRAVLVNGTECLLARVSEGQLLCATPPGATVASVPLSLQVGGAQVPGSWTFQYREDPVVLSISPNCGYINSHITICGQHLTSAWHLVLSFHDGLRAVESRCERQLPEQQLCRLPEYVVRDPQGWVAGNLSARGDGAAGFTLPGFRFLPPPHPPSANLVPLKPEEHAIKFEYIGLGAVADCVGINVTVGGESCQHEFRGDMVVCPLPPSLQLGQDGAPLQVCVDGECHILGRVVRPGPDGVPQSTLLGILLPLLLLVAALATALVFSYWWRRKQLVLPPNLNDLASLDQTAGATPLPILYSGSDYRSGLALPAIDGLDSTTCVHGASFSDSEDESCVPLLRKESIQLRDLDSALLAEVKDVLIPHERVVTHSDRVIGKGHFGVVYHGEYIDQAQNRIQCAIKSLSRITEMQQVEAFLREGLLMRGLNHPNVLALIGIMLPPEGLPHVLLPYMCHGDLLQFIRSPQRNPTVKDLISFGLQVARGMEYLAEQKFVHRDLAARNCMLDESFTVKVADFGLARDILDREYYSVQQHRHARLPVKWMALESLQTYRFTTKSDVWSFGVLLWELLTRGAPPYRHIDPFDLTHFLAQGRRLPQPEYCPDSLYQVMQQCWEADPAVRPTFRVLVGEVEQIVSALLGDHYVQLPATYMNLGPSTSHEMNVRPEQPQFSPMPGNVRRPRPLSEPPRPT

With `COc1cc2c(Oc3ccc(NC(=O)C4(c5nnc(-c6ccc(F)cc6)o5)CC4)cc3F)ccnc2cc1OCCCN1CCCCC1`, the IC50 with A549 [1] was 53 nM; in the experiment with MCF7 [3], 1010 nM; in experiment [4], greater than 200 nM; in experiment [5] it was 71 nM; in experiment [6], greater than 200 nM; in the experiment with HT-29, 1030 nM. Further, the IC50 amounted to 107 nM in the experiment with H1975/Gefitinib, 81 nM in experiment [9], 63 nM in [12] and 10 nM in experiment [13]. Also, the inhibition in [2] is greater than 80%; in experiment [7], greater than 80%; in experiment [8], greater than 80%; in [11] it was 93.7%. In the experiment on MDA-MB-231, the result was Active. The figures for the “Ratio IC50” value with PC-3, in the experiment on MCF7 [10] and with A549 [14] were 1.54, 2 and 1.9, respectively.
